Measurements from ChEMBL document CHEMBL3885881, “DrugMatrix”.

Organism: Rattus norvegicus
Assay: DrugMatrix - Regimen: Daily Repeat
Assay type: toxicity, organism-based, Sprague-Dawley
Set-up: regimen Daily Repeat, gender Male, age 6-8 weeks
Conditions: in vivo, po, 1300 mg/kg, route oral GAVAGE, dose level High, vehicle .5 % CMC; for ABSOLUTE BASOPHIL / ABSOLUTE EOSINOPHIL / ABSOLUTE LYMPHOCYTE / ABSOLUTE MONOCYTE / ABSOLUTE SEGMENTED NEUTROPHIL / BASOPHIL / EOSINOPHIL / ERYTHROCYTE COUNT / HEMATOCRIT / HEMOGLOBIN / LEUKOCYTE COUNT / LYMPHOCYTE / MEAN CORPUSCULAR HEMOGLOBIN / MEAN CORPUSCULAR HEMOGLOBIN CONCENTRATION / MEAN CORPUSCULAR VOLUME / MONOCYTE / NEUTROPHIL / NUCLEATED RED BLOOD CELLS / PLATELET COUNT: tissue Blood; for ALANINE AMINOTRANSFERASE / ALBUMIN / ALKALINE PHOSPHATASE / ASPARTATE AMINOTRANSFERASE / BLOOD UREA NITROGEN / CARBON DIOXIDE / CHLORIDE / CHOLESTEROL / CREATINE PHOSPHOKINASE / CREATININE / GLUCOSE / LACTATE DEHYDROGENASE / LIPASE / PHOSPHORUS / POTASSIUM / SODIUM / TOTAL BILIRUBIN / TOTAL PROTEIN / URIC ACID: tissue Plasma

NC(=O)c1ccccc1O [SALICYLAMIDE]
ABSOLUTE BASOPHIL (72 h, time 3 day): 0 CELLS/uL
ABSOLUTE EOSINOPHIL (72 h, time 3 day): 0 CELLS/uL
ABSOLUTE LYMPHOCYTE (72 h, time 3 day): 15293.5 CELLS/uL
ABSOLUTE MONOCYTE (72 h, time 3 day): 351 CELLS/uL
ABSOLUTE SEGMENTED NEUTROPHIL (72 h, time 3 day): 1905.5 CELLS/uL
BASOPHIL (72 h, time 3 day): 0%
EOSINOPHIL (72 h, time 3 day): 0%
ERYTHROCYTE COUNT (72 h, time 3 day): 6 x10E6/uL
HEMATOCRIT (72 h, time 3 day): 36.9%
HEMOGLOBIN (72 h, time 3 day): 14.4 G/DL
LEUKOCYTE COUNT (72 h, time 3 day): 17.55 x10E3/uL
LYMPHOCYTE (72 h, time 3 day): 87%
MEAN CORPUSCULAR HEMOGLOBIN (72 h, time 3 day): 24 pg
MEAN CORPUSCULAR HEMOGLOBIN CONCENTRATION (72 h, time 3 day): 39 G/DL
MEAN CORPUSCULAR VOLUME (72 h, time 3 day): 61.55 fL
MONOCYTE (72 h, time 3 day): 2%
NEUTROPHIL (72 h, time 3 day): 11%
NUCLEATED RED BLOOD CELLS (72 h, time 3 day): 0 /100WBC
PLATELET COUNT (72 h, time 3 day): 1429 x10E3/uL
ALANINE AMINOTRANSFERASE (72 h, time 3 day): 90 u/L
ALBUMIN (72 h, time 3 day): 4.2 G/DL
ALKALINE PHOSPHATASE (72 h, time 3 day): 469 u/L
ASPARTATE AMINOTRANSFERASE (72 h, time 3 day): 83 u/L
BLOOD UREA NITROGEN (72 h, time 3 day): 14 mg/dL
CARBON DIOXIDE (72 h, time 3 day): 30.5 mmol/L
CHLORIDE (72 h, time 3 day): 101 MEQ/L
CHOLESTEROL (72 h, time 3 day): 71.5 mg/dL
CREATINE PHOSPHOKINASE (72 h, time 3 day): 167.5 u/L
CREATININE (72 h, time 3 day): 0.12 mg/dL
GLUCOSE (72 h, time 3 day): 146.5 mg/dL
LACTATE DEHYDROGENASE (72 h, time 3 day): 166 u/L
LIPASE (72 h, time 3 day): 9.5 u/L
PHOSPHORUS (72 h, time 3 day): 12.5 mg/dL
POTASSIUM (72 h, time 3 day): 6.86 MEQ/L
SODIUM (72 h, time 3 day): 145.55 MEQ/L
TOTAL BILIRUBIN (72 h, time 3 day): 0.2 mg/dL
TOTAL PROTEIN (72 h, time 3 day): 5.75 G/DL
URIC ACID (72 h, time 3 day): 1.65 mg/dL
ABSOLUTE BASOPHIL (120 h, time 5 day): 0 CELLS/uL
ABSOLUTE EOSINOPHIL (120 h, time 5 day): 33.67 CELLS/uL
ABSOLUTE LYMPHOCYTE (120 h, time 5 day): 13088.67 CELLS/uL
ABSOLUTE MONOCYTE (120 h, time 5 day): 0 CELLS/uL
ABSOLUTE SEGMENTED NEUTROPHIL (120 h, time 5 day): 1544.33 CELLS/uL
BASOPHIL (120 h, time 5 day): 0%
EOSINOPHIL (120 h, time 5 day): 0.33%
ERYTHROCYTE COUNT (120 h, time 5 day): 5.56 x10E6/uL
HEMATOCRIT (120 h, time 5 day): 35.47%
HEMOGLOBIN (120 h, time 5 day): 14.03 G/DL
LEUKOCYTE COUNT (120 h, time 5 day): 14.67 x10E3/uL
LYMPHOCYTE (120 h, time 5 day): 88.67%
MEAN CORPUSCULAR HEMOGLOBIN (120 h, time 5 day): 25.27 pg
MEAN CORPUSCULAR HEMOGLOBIN CONCENTRATION (120 h, time 5 day): 39.6 G/DL
MEAN CORPUSCULAR VOLUME (120 h, time 5 day): 63.83 fL
MONOCYTE (120 h, time 5 day): 0%
NEUTROPHIL (120 h, time 5 day): 11%
NUCLEATED RED BLOOD CELLS (120 h, time 5 day): 0.33 /100WBC
PLATELET COUNT (120 h, time 5 day): 1393 x10E3/uL
ALANINE AMINOTRANSFERASE (120 h, time 5 day): 71 u/L
ALBUMIN (120 h, time 5 day): 4.07 G/DL
ALKALINE PHOSPHATASE (120 h, time 5 day): 356.67 u/L
ASPARTATE AMINOTRANSFERASE (120 h, time 5 day): 83.33 u/L
BLOOD UREA NITROGEN (120 h, time 5 day): 16 mg/dL
CARBON DIOXIDE (120 h, time 5 day): 23 mmol/L
CHLORIDE (120 h, time 5 day): 106.33 MEQ/L
CHOLESTEROL (120 h, time 5 day): 70.33 mg/dL
CREATINE PHOSPHOKINASE (120 h, time 5 day): 456 u/L
CREATININE (120 h, time 5 day): 0.21 mg/dL
GLUCOSE (120 h, time 5 day): 189.33 mg/dL
LACTATE DEHYDROGENASE (120 h, time 5 day): 144.67 u/L
LIPASE (120 h, time 5 day): 10 u/L
PHOSPHORUS (120 h, time 5 day): 12.87 mg/dL
POTASSIUM (120 h, time 5 day): 5.46 MEQ/L
SODIUM (120 h, time 5 day): 149.13 MEQ/L
TOTAL BILIRUBIN (120 h, time 5 day): 0.27 mg/dL
TOTAL PROTEIN (120 h, time 5 day): 5.83 G/DL
URIC ACID (120 h, time 5 day): 1.7 mg/dL
